# Reference: a melting point compilation (Tetko et al.; mined from patent text by program, amines drawn as free bases though some values may be those of a salt)
# Residues, ends and D or L forms follow the SMILES beside them. *: point of attachment. Tos = Cc1ccc(S(=O)(=O)*)cc1; NHPh = c1ccc(N*)cc1
row,Compound,melting point [°C]
1,Cn1ncc(C(=O)N2CCC2)c1C(=O)Nc1ccn2nc(N3CCCC3)nc2c1,> 250
2,CC(=O)Nc1ccc(C=C(C(=O)C2CC2)C(=O)C2CC2)cc1,166 to 167
3,Cc1ccc(C=NC2=NN(c3ccc4ccccc4c3)CC2)cc1,184 to 186
4,O=C(Nc1nc2ccc(Sc3nnc4ccc(-c5cccc(F)c5)cn34)cc2s1)C1CC1,> 260
5,CC(C)(c1ccccc1)N1CCC=C(c2ccccc2)C1=O,119 to 120
6,Cc1c(-c2ccccc2)oc2c(CN(C)CCCl)cccc2c1=O,118 to 120
7,Cc1ccc(Sc2cncc3sc(C(=O)Nc4ccc(Cl)cc4)cc23)cc1,208 to 211
8,CCOC(=O)C(=NOCc1ccc(OCc2nc(-c3ccccc3)oc2C)cc1)c1ccc(Br)cc1,105 to 106
9,Oc1ccc(-c2cc3c(Br)c(O)cc(Br)c3o2)cc1,215 to 217
10,O=c1[nH]c2c(cnn2-c2ccccc2)c2ccccc12,280
11,CC(=O)NC[C@H](O)CC(=O)NN,178
12,CCOC(=O)c1nc(NC)sc1C(=O)C(C)Br (centres undefined),104 to 106
13,OCc1csc(Nc2ccc(Oc3ccccc3)cn2)n1,130 to 131
14,CCCc1nc2c(N)nc3c(c2n1CCOCCS(C)(=O)=O)CCCC3,153 to 155
15,N#Cc1cncc(-c2ccc(OC[C@@H](N)Cc3ccccc3)cc2)c1Nc1cccc2[nH]ccc12,83 to 85
16,O=C(O)C1(CS(=O)(=O)c2ccc(Oc3ccccc3)cc2)CCOCC1,162 to 165
17,Cc1[nH]c2ccccc2c1CCN1CCC(Oc2ccc(F)cc2)CC1,97 to 99
18,O=c1c2ccccc2ncn1-c1nnn[nH]1,259 to 260
19,CC(C)N1CCN(CCN2CCC(c3cn(-c4ccc(F)cc4)c4cc(Cl)ccc34)CC2)C1=O,134
20,CC1(C)C(=O)N(c2ccc(C#N)c(C(F)(F)F)c2)C(=S)N1CCCO,149 to 150

row,Compound,melting point [°C]
1,Cc1ccccc1C(=O)Nc1ccc(C(=O)N2CCCC(N(C)C)c3ccccc32)c(C)c1 (centres undefined),183 to 185
2,Cc1cc(Nc2ccnc(Nc3ccc(S(=O)(=O)N(CCN4CCCC4)C4CCN(C)CC4)cc3)n2)ccc1F,93 to 103
3,CON=C(C1=NOCCO1)c1ccccc1COc1ccn(-c2ccc(Cl)cc2)n1,56 to 59
4,COc1cc(C(=O)/C=C/c2c(-c3ccc(F)cc3)nc3sccn23)cc(OC)c1OC,222 to 225
5,CNC(=O)NC(=O)C(CC1CCCC1)c1ccc(-c2cccc3ccccc23)cc1 (centres undefined),85 to 88
6,O=C(/C=C/c1ccccc1)N1CCCC1,100
7,Cc1nc(C)c2c(n1)N(Cc1ccc(-c3ccccc3-c3nnn[nH]3)cc1)C(=O)C(O)C2 (centres undefined),154 to 156
8,CN1CCN(CC2COCc3nc4c(N)nc5ccccc5c4n32)CC1 (centres undefined),187 to 190
9,C=CCN1C(=O)N(Cc2c(C)c(CN3C(=O)N(CC=C)C(=O)C3(C)C)c(C)c(CN3C(=O)N(CC=C)C(=O)C3(C)C)c2C)C(C)(C)C1=O,150 to 155
10,CC1(C)CCC(C)(C)c2cc(-c3cc([N+](=O)[O-])ccc3-c3ccccc3)ccc21,181 to 183
11,O=S1(=O)NC(C2CCCCC2)Nc2cc3c(cc21)OCCO3 (centres undefined),196 to 200
12,Nc1c(-c2ccc(Oc3ccccc3)cc2)nc2ccc(C(F)(F)F)cc2c1C(=O)O,220 to 225
13,C#Cc1sc(C2=NOC(c3cc(Cl)cc(Cl)c3)(C(F)(F)F)C2)cc1C (centres undefined),105 to 107
14,Cc1cc(C=CC#N)cc(Oc2c(C(C)C)c(=O)[nH]c(=O)n2Cc2ccnc(N3C(=O)c4ccccc4C3=O)c2)c1,229 to 231
15,O=C(C=Cc1cccc(F)c1)c1cnc2sc3c(n12)CCCCC3,176 to 177
16,COc1cccc2c(OCCN3CCOCC3)c(-c3ccccc3)c(=O)oc12,90 to 91
17,COC(=O)c1cncn1C1c2ccccc2C(=O)C1(C)C (centres undefined),104 to 108
18,Cc1ccc(S(=O)(=O)N[C@@H](C)C(=O)N2CCC[C@H]2C(=O)Nc2ccccc2)cc1 (Tos-Ala-Pro-NHPh),145 to 147
19,Oc1ccc(N2CCN(n3ccnc3)CC2)cc1,282
20,C[Si](C)(C)C#Cc1cn(C2CC(O)C(COC(c3ccccc3)(c3ccccc3)c3ccccc3)O2)c(=O)[nH]c1=O (centres undefined),104

row,Compound,melting point [°C]
1,CN(Cc1cc(C(F)(F)F)cc(C(F)(F)F)c1)C(=O)c1c(-c2ccccc2)c2ccccc2c(=S)n1C,145 to 147
2,COc1ccc(N2C=Cc3cc(S(N)(=O)=O)sc3S2(=O)=O)cc1,90 to 92
3,COc1cc2c(cc1F)C(CCCN1CCN(C)CC1)(c1ccccc1F)C(=O)N2S(=O)(=O)c1ccc(OC(C)C)cc1 (centres undefined),72
4,Nc1ccccc1C(=O)N1CCCc2ccccc21,102
5,O=C1NCCc2c1c1ccccc1n2CC1CCCC1,179 to 181
6,O=C1NCCN1c1ccc(S(=O)(=O)Nc2ccc3c(c2)CCC3)cc1,228 to 230
7,COC(=O)c1ccccc1-c1ccc(CNc2nc(Cl)nc3ccccc23)cc1,75 to 90
8,COc1ccc(S(=O)(=O)N2CC3CCC(CC3)C2)c2ccccc12,168 to 170
9,COC(=O)c1ccc(CN(C(=O)OC(C)(C)C)c2ccc(C3CCCCC3)cc2)cc1,99.5 to 101
10,O=S1(=O)c2cccc3cccc(c23)N1CCN1CCC(CC2Cc3ccccc3C2)CC1,126
11,OC(CNc1cc(Cl)c(Cl)cc1Cl)Cn1ccnc1 (centres undefined),156 to 158
12,CC1CCC2(CC1)OCCN2C(=O)C(Cl)Cl (centres undefined),119 to 120
13,Cc1oc(-c2ccc3ccccc3c2)nc1COc1ccc(CCCCC2OC(=O)NC2=O)cc1 (centres undefined),163 to 164
14,CNC(=O)c1ccc(C=CC(=O)NCC(=O)N(C)c2ccc(C)c(COc3cccc4c3nc(S)n4C)c2C)cc1,278 to 292
15,NC(=O)NN=Cc1ccc(Oc2ccc3c(c2)OCO3)cc1,225 to 226
16,Nc1ccc(S(=O)(=O)Nc2cccc(OP(N)(N)=O)c2)cc1,185 to 186
17,Brc1ccc(CC2=NCCN2)c2ccccc12,133 to 135
18,Cc1ccc(S(=O)(=O)N[C@@H]2COC(C)(C)OC[C@H]2OS(=O)(=O)c2ccc(C)cc2)cc1 (relative stereo),200 to 202
19,COc1ccc(CN2CCc3c(nc4ccc(OC)cc4c3-c3ccc(OC)cc3)C2=O)cc1,132 to 134

# Continued, values first:
row,melting point [°C],Compound
1,91,CCCCCCCOc1ccc(-c2ccc(OCC(C)CC)nn2)cc1 (centres undefined)
2,133 to 136,CCOC(=O)CC(=O)Nc1ccc(N)c([N+](=O)[O-])c1
3,99 to 103,O=C(N1CCc2ccc(S(=O)(=O)F)cc2C1)C(F)(F)F
4,157 to 158,CN=C1SCC(O)(c2ccc(Cl)c(S(=O)(=O)N(C)C)c2)N1C (centres undefined)
5,56 to 57,CCOC(=O)Cc1cc2cc(Br)ccc2s1
6,243 to 246,COc1ccc(-c2nc(NC(C)=O)n3nc(-c4ccco4)nc3n2)cc1
7,143 to 148,Cc1cc(-c2ccccc2)n2nc(C(F)(F)F)c(C#N)c2n1
8,75 to 77,CN(C)Cc1c(Cl)nc(-c2ccccc2)c2ccccc12
9,158 to 159,CC(=O)c1ccc2c(c1)ncn2-c1cccc(-c2ccccn2)c1
10,220 to 221,Cc1cc(C)c(Nc2nc(Nc3ccc(C#N)cc3)nc(Cl)c2Br)c(C)c1
11,149 to 150,CN1CCC(c2cccc(Cl)c2)(C(C)(C)O)CC1
12,83 to 85,CCN(CC)c1ccc([N+](=O)[O-])cc1C#N
13,129,O=S(=O)(c1ccc(Cl)cc1)C(Cc1ccncc1)c1cc(F)ccc1F (centres undefined)
14,73 to 76,CON=Cc1ccccc1OCc1ccccc1C(=NOC)C(=O)OC
15,110 to 112,CCOC(=O)N=C(NC(=O)Nc1ccc(C)cc1)SCC
16,157 to 159,COc1cc(C(NC(=O)OC(C)(C)C)C(c2ccccc2)[N+](=O)[O-])ccc1Br (centres undefined)
17,104,CCOC(=O)C(C)Oc1ccc(Oc2nnc3cc(Br)ccc3n2)cc1 (centres undefined)
18,152 to 153,CCN(CC)CCN1C(=O)C(NC(=O)c2ccccc2)C(C)(C)SC1=S (centres undefined)
19,157 to 163,CC(=O)NC(Cl)CCC(=O)c1ccccc1 (centres undefined)
20,115 to 121,O=C(O)c1cccnc1C(=O)c1ccccc1

row,melting point [°C],Compound
1,190 to 191,N#Cc1cnc2cc(Br)sc2c1Cl
2,228 to 229,O=c1c2c(CBr)c(-c3ccc([N+](=O)[O-])cc3)sc2n(Cc2c(F)cccc2F)c(=O)n1-c1ccccc1
3,165 to 166,CCCNc1nc(-c2ccccc2)c(-c2ccc(=O)n(C(C)C)n2)s1
4,103 to 111,COc1cccc(S(=O)c2cccc(F)c2C#N)c1 (centres undefined)
5,115 to 117,COc1cccc(-c2ncc3n2CC(=O)N(C)C3)c1
6,129 to 132,CN1CCN(CCCNc2ccc(-n3cc(C(F)(F)F)ccc3=O)c(Cl)c2)CC1
7,175 to 177,CC1COc2cc(-c3ccco3)ccc2C1=NO (centres undefined)
8,170 to 172,CN1CCCC(COc2ccc(C(=O)NN)cc2)C1 (centres undefined)
9,124 to 125,CN(C)c1ccc(C=O)c(OCC#N)c1
10,95.2 to 96,C#Cc1cn(-c2c(Cl)cc(OC(F)(F)F)cc2Cl)nc1C#N
11,55 to 57,COC(=O)NN(C(=O)Cl)c1ccccc1OCCSC
12,> 240,CC(C)(C)c1cc(-c2ccc(C(=O)O)c(C(C)(C)C)c2)ccc1O
13,90,N#CC(Cl)Cc1cccc([N+](=O)[O-])c1 (centres undefined)
14,128,CCOC(=O)/C(CCO)=C(\c1ccc(Cl)cc1)c1ccc(S(C)(=O)=O)cc1
15,99 to 101,Cc1cncn1-c1cc(C#N)cc(C(F)(F)F)c1
16,108 to 110,CCCCn1c(=O)n(Cc2ccccc2)c(=O)c2c(Cl)cc(Cl)cc21
17,61 to 64,CCOC(=O)c1cnc2ccc(OCC)nc2c1Cl
18,69 to 70,COC=C(C(=O)OC)c1ccc(OC(C)=O)cc1
19,58,CCN(CC)C(=O)CCc1nc(-c2ccccc2)cc2ccccc12
20,> 250,CCOC(=O)c1cnc2nc(C(F)(F)F)ccc2c1O
